Laboratory results published in publication PMC9977050, “Thymoquinone effect on the Dictyostelium discoideum model correlates with functional roles for glutathione S-transferases in eukaryotic proliferation, chemotaxis, and development” (PLOS ONE, 2023).

What was measured:
Test in all cases: CDNB conjugation assay, absorbance at […] nm
Assay type in all cases: biochemical
rDdGSTA3 = molecular target: T1, rDdGSTA3 (Dictyostelium discoideum, UniProt Q54VI4); settings: with GSH, 25°C
T1 construct: gene gsta3; purified recombinant
T1 sequence (Q54VI4 2-204): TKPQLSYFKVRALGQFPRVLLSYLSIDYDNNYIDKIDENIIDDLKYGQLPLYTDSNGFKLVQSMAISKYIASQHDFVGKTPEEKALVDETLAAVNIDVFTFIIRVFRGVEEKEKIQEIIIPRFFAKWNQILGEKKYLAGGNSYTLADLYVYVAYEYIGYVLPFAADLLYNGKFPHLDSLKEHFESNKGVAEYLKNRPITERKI

rDdGSTA2 [1] = molecular target: T2, rDdGSTA2 (Dictyostelium discoideum, UniProt Q556G3); settings: with GSH, 25°C
T2 construct: gene gsta2-1; purified recombinant
T2 sequence (Q556G3 2-198): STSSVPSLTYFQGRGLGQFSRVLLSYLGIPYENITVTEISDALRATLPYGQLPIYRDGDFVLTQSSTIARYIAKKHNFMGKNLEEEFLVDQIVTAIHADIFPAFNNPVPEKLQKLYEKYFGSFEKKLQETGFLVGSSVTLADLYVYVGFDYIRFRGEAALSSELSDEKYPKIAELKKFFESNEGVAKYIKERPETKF

rDdGSTA2 [2] = molecular target: T2, rDdGSTA2; settings: GSH and CDNB as substrates, 25°C; mode not determined; authors caution that thymoquinone may also bind GSH, CDNB or product

Row | Structure (SMILES) | CDNB conjugation assay, absorbance at 340 nm (rDdGSTA3) | CDNB conjugation assay, absorbance at 340 nm (rDdGSTA2 [1]) | % reduction of GS-DNB conjugate at 0.75 μM (rDdGSTA2 [2]) [%]
1 | O=[N+]([O-])c1ccc(Cl)c([N+](=O)[O-])c1 [CDNB, 1-chloro-2,4-dinitrobenzene] | CDNB activity assays of purified, recombinant GSTs (rDdGSTA2, rDdGSTA3) were conducted | CDNB activity assays of purified, recombinant GSTs (rDdGSTA2, rDdGSTA3) were conducted | 
2 | CC1=CC(=O)C(C(C)C)=CC1=O [thymoquinone, 2-isopropyl-5-methylbenzo-1,4-quinone] |  |  | 61
